What all share (format): in vivo
Test [1] concerns Beet Armyworm (Spodoptera exigua) ("BAW"), second instar larvae. The experiment in a line: Bioassay on beet armyworm (BAW), 128-well diet tray assay. As to conditions: Spodoptera exigua. A digest of the protocol:
(§1)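 Each value represents average percent mortality from eight wells. Larvae were kept in clear-covered trays at 25° C. for five to seven days on a 14-hour light, 10-hour dark schedule before scoring.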

The subject of test [2] is Cabbage Looper (Trichoplusia ni) ("CL"), second instar larvae. The experiment in a line: Bioassay on cabbage looper (CL), 128-well diet tray assay. Conditions: Trichoplusia ni. In outline: as §1
Test [3] concerns Green Peach Aphid ("GPA") (Myzus persicae), wingless adult and nymph stages. The experiment in a line: Bioassay on green peach aphid (GPA), foliar spray on infested cabbage seedlings. As to conditions: Myzus persicae, foliar, 72 h. In outline:
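Cabbage seedlings with 2-3 true leaves, infested one day earlier with 20-50 wingless adult and nymph GPA, sprayed to runoff on both leaf sides; solvent check held 20% acetone/methanol (1:1). Live aphids counted after three days at about 25° C; corrected % control = 100*(X−Y)/X versus solvent check.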

Where [4] appears, read: read-out: BAW (Biological Results, rating).
Where [5] appears, read: read-out: CL (Biological Results, rating).
Setting [6] is: read-out: GPA (Biological Results, rating).

The results in this text go back to patent publication US20230077362A1 (CORTEVA AGRISCIENCE LLC, priority 2019, published 2023).

The structures appear in SMILES notation. Where two headings read alike, the source gives them in different places.

Take `COC(C)c1ccc(C#N)cc1N1C(=O)CS/C1=N\C(=O)Nc1ccc(-c2cn(-c3ccc(S(=O)(=O)C(F)(F)F)cc3)cn2)cc1F` (stereo not drawn) [Compound J652, (Z)-1-(3-(5-Cyano-2-(1-methoxyethyl)phenyl)-4-oxothiazolidin-2-ylidene)-3-(2-fluoro-4-(1-(4-((trifluoromethyl)sulfonyl)phenyl)-1H-imidazol-4-yl)phenyl)urea]: the pest or weed control at 50 µg/cm2 in test [1] (read-out: BAW rating) and in test [2] (read-out: CL rating) was 50 to 100% throughout. The pest or weed control at 200 µg/mL in test [3] (read-out: GPA rating) was in the range of 0 to 80%.

Turning to `CCOc1ccc(N(C)C)cc1N1C(=O)CS/C1=N\C(=O)Nc1ccc(-c2ncn(-c3ccc(OC(F)(F)F)cc3)n2)cc1F` [Compound J192, (Z)-1-(3-(5-(Dimethylamino)-2-ethoxyphenyl)-4-oxothiazolidin-2-ylidene)-3-(2-fluoro-4-(1-(4-(trifluoromethoxy)phenyl)-1H-1,2,4-triazol-3-yl)phenyl)urea], the pest or weed control at 50 µg/cm2 in test [1] (setting [4]) and in test [2] (setting [5]) was 50 to 100% throughout. The pest or weed control at 200 µg/mL in test [3] (setting [6]) was 0 to 80%.

Turning to `CC(C)c1ccc(N(C)C)cc1N1C(=O)CS/C1=N\C(=O)Nc1ccc(-c2ncn(-c3cccc(C(F)(F)F)c3)n2)cc1` [Compound J325, (Z)-1-(3-(5-(Dimethylamino)-2-isopropylphenyl)-4-oxothiazolidin-2-ylidene)-3-(4-(1-(3-(trifluoromethyl)phenyl)-1H-1,2,4-triazol-3-yl)phenyl)urea], the pest or weed control at 50 µg/cm2 in test [1] (setting [4]) and in test [2] (setting [5]) was 50 to 100% throughout. The pest or weed control at 200 µg/mL in test [3] (setting [6]) lay in the range of 0 to 80%.

Take `CCc1cc(-c2ncn(-c3ccc(OC(F)(F)F)cc3)n2)ccc1NC(=O)/N=C1\SCC(=O)N1c1cc(C)ccc1OCCC(F)(F)F` [Compound J73, (Z)-1-(2-Ethyl-4-(1-(4-(trifluoromethoxy)phenyl)-1H-1,2,4-triazol-3-yl)phenyl)-3-(3-(5-methyl-2-(3,3,3-trifluoropropoxy)phenyl)-4-oxothiazolidin-2-ylidene)urea]: the pest or weed control at 50 µg/cm2 in test [1] (setting [4]) and in test [2] (setting [5]) was 50 to 100% throughout. In addition, in test [3] (setting [6]), the pest or weed control at 200 µg/mL fell in the range of 0 to 80%.

Turning to `CCOc1ccc(C)cc1N1C(=O)CS/C1=N\C(=O)Nc1ccc(-c2ncn(-c3ccc(SC(F)(F)F)cc3)n2)cc1F` [Compound J224, (Z)-1-(3-(2-Ethoxy-5-methylphenyl)-4-oxothiazolidin-2-ylidene)-3-(2-fluoro-4-(1-(4-((trifluoromethyl)thio)phenyl)-1H-1,2,4-triazol-3-yl)phenyl)urea], the pest or weed control at 50 µg/cm2 in test [1] (setting [4]) and in test [2] (setting [5]) was 50 to 100% throughout. Moreover, the pest or weed control at 200 µg/mL in test [3] (setting [6]) lay within 0 to 80%.

Turning to `COc1ccc(-n2cnc(-c3ccc(NC(=O)/N=C4\SCC(=O)N4c4cc(OC)ccc4C(C)C)c(F)c3)n2)cc1` [Compound J145, (Z)-1-(2-Fluoro-4-(1-(4-methoxyphenyl)-1H-1,2,4-triazol-3-yl)phenyl)-3-(3-(2-isopropyl-5-methoxyphenyl)-4-oxothiazolidin-2-ylidene)urea], the pest or weed control at 50 µg/cm2 in test [1] (setting [4]) and in test [2] (setting [5]) was 50 to 100% in each case. In test [3] (setting [6]), the pest or weed control at 200 µg/mL is 0 to 80%.

Regarding `COC(=O)c1ccc(C(C)C)c(N2C(=O)CS/C2=N\C(=O)Nc2ccc(-c3ncn(-c4ccc(OC(F)(F)F)cc4)n3)cc2F)c1` [Compound J104, Methyl (Z)-3-(2-(((2-fluoro-4-(1-(4-(trifluoromethoxy)phenyl)-1H-1,2,4-triazol-3-yl)phenyl)carbamoyl)imino)-4-oxothiazolidin-3-yl)-4-isopropylbenzoate], the pest or weed control at 50 µg/cm2 in test [1] (setting [4]) and in test [2] (setting [5]) was 50 to 100% in each case. In test [3] (setting [6]), the pest or weed control at 200 µg/mL is 0 to 80%.

As for `Cc1ccc(COCC(F)(F)F)c(N2C(=O)CS/C2=N\C(=O)Nc2ccc(-c3ncn(-c4ccc(C(F)F)cc4)n3)cc2C)c1` [Compound J684, (Z)-1-(4-(1-(4-(Difluoromethyl)phenyl)-1H-1,2,4-triazol-3-yl)-2-methylphenyl)-3-(3-(5-methyl-2-((2,2,2-trifluoroethoxy)methyl)phenyl)-4-oxothiazolidin-2-ylidene)urea], the pest or weed control at 50 µg/cm2 in test [1] (read-out: BAW rating) and in test [2] (read-out: CL rating) was 50 to 100% throughout. For the same compound, in test [3] (read-out: GPA rating), the pest or weed control at 200 µg/mL is 0 to 80%.

In the case of `CN(C)c1ccc(OCCC(F)(F)F)c(N2C(=O)CS/C2=N\C(=O)Nc2ccc(-c3ncn(-c4ccc(OC(F)(F)F)cc4)n3)cc2F)c1` [Compound J105, (Z)-1-(3-(5-(Dimethylamino)-2-(3,3,3-trifluoropropoxy)phenyl)-4-oxothiazolidin-2-ylidene)-3-(2-fluoro-4-(1-(4-(trifluoromethoxy)phenyl)-1H-1,2,4-triazol-3-yl)phenyl)urea], the pest or weed control at 50 µg/cm2 in test [1] (setting [4]) and in test [2] (setting [5]) was 50 to 100% in each case. Moreover, the pest or weed control at 200 µg/mL in test [3] (setting [6]) lay in the range of 0 to 80%.

With `Cc1ccc(OCCC(F)(F)F)c(N2C(=O)CS/C2=N\C(=O)Nc2ccc(-c3ncn(-c4ccc(C#N)cc4)n3)cc2F)c1` [Compound J288, (Z)-1-(4-(1-(4-Cyanophenyl)-1H-1,2,4-triazol-3-yl)-2-fluorophenyl)-3-(3-(5-methyl-2-(3,3,3-trifluoropropoxy)phenyl)-4-oxothiazolidin-2-ylidene)urea], the pest or weed control at 50 µg/cm2 in test [1] (setting [4]) and in test [2] (setting [5]) was 50 to 100% in each case. Also, the pest or weed control at 200 µg/mL in test [3] (setting [6]) was 0 to 80%.

With `CC(C)c1ccccc1N1C(=O)CS/C1=N\C(=O)Nc1ccc(-c2ncn(-c3ccc(OC(F)(F)F)cc3)n2)cc1F` [Compound J86, (Z)-1-(2-Fluoro-4-(1-(4-(trifluoromethoxy)phenyl)-1H-1,2,4-triazol-3-yl)phenyl)-3-(3-(2-isopropylphenyl)-4-oxothiazolidin-2-ylidene)urea], the pest or weed control at 50 µg/cm2 in test [1] (setting [4]) and in test [2] (setting [5]) was 50 to 100% throughout. Further, in test [3] (setting [6]), the pest or weed control at 200 µg/mL was in the range of 0 to 80%.

Regarding `Cc1ccc(-n2cnc(-c3ccc(NC(=O)/N=C4\SCC(=O)N4c4cc(C)ccc4C(C)C)c(F)c3)n2)cc1` [Compound J148, (Z)-1-(2-Fluoro-4-(1-(p-tolyl)-1H-1,2,4-triazol-3-yl)phenyl)-3-(3-(2-isopropyl-5-methylphenyl)-4-oxothiazolidin-2-ylidene)urea], the pest or weed control at 50 µg/cm2 in test [1] (setting [4]) and in test [2] (setting [5]) was 50 to 100% each time. For the same compound, the pest or weed control at 200 µg/mL in test [3] (setting [6]) is 0 to 80%.

For `CCOCc1ccc(C)cc1N1C(=O)CS/C1=N\C(=O)Nc1ccc(-c2cn(-c3ccc(S(=O)(=O)C(F)(F)F)cc3)cn2)cc1F` [Compound J646, (Z)-1-(3-(2-(Ethoxymethyl)-5-methylphenyl)-4-oxothiazolidin-2-ylidene)-3-(2-fluoro-4-(1-(4-((trifluoromethyl)sulfonyl)phenyl)-1H-imidazol-4-yl)phenyl)urea], the pest or weed control at 50 µg/cm2 in test [1] (read-out: BAW rating) and in test [2] (read-out: CL rating) was 50 to 100% throughout. Further, in test [3] (read-out: GPA rating), the pest or weed control at 200 µg/mL lay in the range of 0 to 80%.

With `COc1ccc(C(C)C)c(N2C(=O)CS/C2=N\C(=O)Nc2ccc(-c3ncn(-c4ccc(C)cc4)n3)cc2F)c1` [Compound J149, (Z)-1-(2-Fluoro-4-(1-(p-tolyl)-1H-1,2,4-triazol-3-yl)phenyl)-3-(3-(2-isopropyl-5-methoxyphenyl)-4-oxothiazolidin-2-ylidene)urea], the pest or weed control at 50 µg/cm2 in test [1] (setting [4]) and in test [2] (setting [5]) was 50 to 100% throughout. Moreover, the pest or weed control at 200 µg/mL in test [3] (setting [6]) lay in the range of 0 to 80%.

With `Cc1ccc(OCCC(F)(F)F)c(N2C(=O)CS/C2=N\C(=O)Nc2ccc(-c3ncn(-c4ccc(OC(F)(F)F)cc4)n3)cc2F)c1` [Compound J35, (Z)-1-(2-Fluoro-4-(1-(4-(trifluoromethoxy)phenyl)-1H-1,2,4-triazol-3-yl)phenyl)-3-(3-(5-methyl-2-(3,3,3-trifluoropropoxy)phenyl)-4-oxothiazolidin-2-ylidene)urea], the pest or weed control at 50 µg/cm2 in test [1] (setting [4]) and in test [2] (setting [5]) was 50 to 100% each time. Moreover, the pest or weed control at 200 µg/mL in test [3] (setting [6]) fell in the range of 0 to 80%.

As to `Cc1ccc(OCCC(F)(F)F)c(N2C(=O)CS/C2=N\C(=O)Nc2ccc(-c3ncn(-c4cccc(OC(F)(F)F)c4)n3)cc2C)c1` [Compound J138, (Z)-1-(3-(5-Methyl-2-(3,3,3-trifluoropropoxy)phenyl)-4-oxothiazolidin-2-ylidene)-3-(2-methyl-4-(1-(3-(trifluoromethoxy)phenyl)-1H-1,2,4-triazol-3-yl)phenyl)urea], the pest or weed control at 50 µg/cm2 in test [1] (setting [4]) and in test [2] (setting [5]) was 50 to 100% in each case. Further, the pest or weed control at 200 µg/mL in test [3] (setting [6]) is 0 to 80%.

With `Cc1ccc(C(F)(F)F)c(N2C(=O)C(Cl)S/C2=N\C(=O)NCC(F)c2ccc(-c3ncn(-c4ccc(OC(F)(F)F)cc4)n3)cc2)c1` (stereo not drawn) [Compound H7], the pest or weed control at 50 µg/cm2 in test [1] (setting [4]) and in test [2] (setting [5]) was 50 to 100% in each case. In test [3] (setting [6]), the pest or weed control at 200 µg/mL was 0 to 80%.

Regarding `COc1ccc(CC(F)(F)F)c(N2C(=O)CS/C2=N\C(=O)NCC(F)c2ccc(-c3ncn(-c4ccc(OC(F)(F)F)cc4)n3)cc2)c1` (stereo not drawn) [Compound H14], the pest or weed control at 50 µg/cm2 in test [1] (setting [4]) and in test [2] (setting [5]) was 50 to 100% each time. For the same compound, the pest or weed control at 200 µg/mL in test [3] (setting [6]) lay within 0 to 80%.

Turning to `Cc1ccc(C(C)C)c(N2C(=O)CS/C2=N\C(=O)Nc2ccc(-c3ncn(-c4cccc(OC(F)(F)F)c4)n3)cc2C)c1` [Compound J135, (Z)-1-(3-(2-Isopropyl-5-methylphenyl)-4-oxothiazolidin-2-ylidene)-3-(2-methyl-4-(1-(3-(trifluoromethoxy)phenyl)-1H-1,2,4-triazol-3-yl)phenyl)urea], the pest or weed control at 50 µg/cm2 in test [1] (setting [4]) and in test [2] (setting [5]) was 50 to 100% each time. Moreover, the pest or weed control at 200 µg/mL in test [3] (setting [6]) was 0 to 80%.
